In brackets after ≈: the same amount, converted by molar mass. Structures can show the parent of a compound that is named as a salt. Where two headings read alike, the source gives them in different places.
Key:
Aspergillus niger (ANIG) = experiment: Minimum inhibitory concentration (MIC), broth two-fold serial dilution test; assay type: cell-based; conditions: Aspergillus niger, Table IIIc, iodopropargyl esters of peptides
[1] = tested on: Aureobasidium pullulans (APUL); experiment: as above; assay type: cell-based; conditions: Aureobasidium pullulans, Table IIIc, iodopropargyl esters of peptides
Botrytis cinerea (BOC) = experiment: In-vitro plant fungicide test; assay type: cell-based; conditions: Botrytis cinerea, 25 ppm; Table IVa; *=Phytotoxic; read-out: % Control at 25 ppm BOC
Fusarium roseum (FUS) = experiment: In-vitro plant fungicide test; assay type: cell-based; conditions: Fusarium sambucinum, read-out: % Control at 25 ppm FUS, 25 ppm; Table IVa; *=Phytotoxic
[2] = tested on: Cochliobolus sativus (HEL); experiment: In-vitro plant fungicide test; assay type: cell-based; conditions: Bipolaris sorokiniana, 25 ppm; Table IVa; *=Phytotoxic; read-out: % Control at 25 ppm HEL
[3] = tested on: Phytophthora capsici (PHY); experiment: In-vitro plant fungicide test; assay type: cell-based; conditions: Phytophthora capsici; 25 ppm; Table IVa; read-out: % Control at 25 ppm PHY
Piricularia oryzae (PIR) = experiment: microbe, parasite or virus in culture; assay type: cell-based; conditions: read-out: % Control at 25 ppm PIR
Pythium ultimum (PYU) = experiment: In-vitro plant fungicide test; assay type: cell-based; conditions: Globisporangium ultimum; 25 ppm; Table IVa; read-out: % Control at 25 ppm PYU
Rhizoctonia solani (RHI) = experiment: In-vitro plant fungicide test; assay type: cell-based; conditions: Rhizoctonia solani; 25 ppm; Table IVa; read-out: % Control at 25 ppm RHI
Septoria nodorum (SEP) = experiment: In-vitro plant fungicide test; assay type: cell-based; conditions: Parastagonospora nodorum, 25 ppm; Table IVa; read-out: % Control at 25 ppm SEP
[4] = tested on: Xanthomonas campestris (XAN); experiment: In-vitro plant fungicide test; assay type: cell-based; conditions: Xanthomonas campestris; 25 ppm; Table IVa; read-out: % Control at 25 ppm XAN
THREE FUNGI = experiment: MIC test against three fungi in Mycophile Broth, pH 5.0, read after 8 days (Table VII); assay type: cell-based; conditions: 192 h
[5] = tested on: Pseudomonas fluorescens (PSFL); experiment: Minimum inhibitory concentration (MIC), broth two-fold serial dilution test; conditions: Pseudomonas fluorescens, read-out: MIC (G-) PSFL, M9G (minimal salts media with glucose); Table IIIc, iodopropargyl esters of peptides
[6] = tested on: Pseudomonas aerugenosa (PSAE); experiment: as above; conditions: Pseudomonas, read-out: MIC (G-) PSAE, M9G (minimal salts media with glucose); Table IIIc, iodopropargyl esters of peptides
Escherichia coli (ECOL) = experiment: as above; conditions: Escherichia coli, read-out: MIC (G-) ECOL, M9G (minimal salts media with glucose); Table IIIc, iodopropargyl esters of peptides
Source text: When the test is ready to be done, each vessel in the dilution series, except the first vessel, contains an equal volume of compound free broth. The first vessel contains twice the volume of broth with the starting concentration of test compound. One half of the broth from the first vessel is transferred to the second vessel. After being mixed, one half the resulting volume is removed from the second vessel and transferred to the third vessel. The entire cycle is repeated sufficiently to give a series of concentrations amounting to 500, 250, 125, 63, 31, 16, 8, and 4 ppm (or 100, 50, 25, 12.5, 6.2, 3.1, 1.6, and 0.8), respectively.
Each vessel is then inoculated with a cell suspension of the appropriate test organism. Bacteria are grown in broth, fungi on agar slants for a time and at a temperature appropriate to the species being tested, and algae are a mixture of green algae and blue-green bacteria grown in a nutrient media. At the end of the growth period, in the case of bacteria, the broth is vortexed to disperse the cells.
The vessels are then incubated at the appropriate temperature. After the incubation, the vessels are examined for growth/no growth.

[7] = tested on: Staphylococcus aureus (SAUR); experiment: as above; conditions: Staphylococcus aureus, read-out: MIC (G+) SAUR, M9G (minimal salts media with glucose); Table IIIc, iodopropargyl esters of peptides
[8] = M9G (minimal salts media with glucose), read-out: MIC (F) ANIG
[9] = M9G (minimal salts media with glucose), read-out: MIC (F) APUL
[10] = Aspergillus niger, serial dilutions from 50 ppm, read after 8 days of incubation, read-out: MIC ANIG
[11] = Aureobasidium pullulans, serial dilutions from 50 ppm, read after 8 days of incubation, read-out: MIC APUL
[12] = Gloeophyllum trabeum, serial dilutions from 50 ppm, read after 8 days of incubation, read-out: MIC GTRA

Row | SMILES | inhibition of growth at 25 ppm (Botrytis cinerea (BOC)) | inhibition of growth at 25 ppm (Fusarium roseum (FUS)) | inhibition of growth at 25 ppm [2] | inhibition of growth at 25 ppm [3] | inhibition of growth at 25 ppm (Piricularia oryzae (PIR)) | inhibition of growth at 25 ppm (Pythium ultimum (PYU)) | inhibition of growth at 25 ppm (Rhizoctonia solani (RHI)) | inhibition of growth at 25 ppm (Septoria nodorum (SEP)) | inhibition of growth at 25 ppm [4] | MIC [5] | MIC [6] | MIC (Escherichia coli (ECOL)) | MIC [7] | MIC (Aspergillus niger (ANIG); [8]) | MIC [1, 9] | MIC (THREE FUNGI; [10]) | MIC (THREE FUNGI; [11]) | MIC (THREE FUNGI; [12]) | also measured
1 | C[C@H](N)C(=O)N[C@H](C(=O)OCC#CI)[C@@H](C)OCc1ccccc1 [Compound 21, L-alanyl-O-benzyl-L-threonine iodopropargyl ester trifluoroacetate] | 0% | 0% | 0% | 100% | 100% | 100% | 100% | 100% | 0% | 100 µg/mL | 100 µg/mL | 100 µg/mL | > 100 µg/mL |  |  |  |  |  | MIC (Aspergillus niger (ANIG); read-out: MIC (F) ANIG, M9G (minimal salts media with glucose)): < 0.8 µg/mL; MIC ([1]; read-out: MIC (F) APUL, M9G (minimal salts media with glucose)): 1.6 µg/mL; MIC (THREE FUNGI; Aspergillus niger, pH 5, read-out: MIC ANIG, Aspergillus niger, serial dilutions from 50 ppm, read after 8 days of incubation): 50 µg/mL; MIC (THREE FUNGI; Aureobasidium pullulans, pH 5, read-out: MIC APUL, Aureobasidium pullulans, serial dilutions from 50 ppm, read after 8 days of incubation): > 50 µg/mL; MIC (THREE FUNGI; Gloeophyllum trabeum, pH 5, read-out: MIC GTRA, Gloeophyllum trabeum, serial dilutions from 50 ppm, read after 8 days of incubation): 50 µg/mL
2 | C[C@H](NC(=O)OC(C)(C)C)C(=O)NCC(=O)OCC#CI [Compound 12, N-t-butoxycarbonyl-L-alanylglycine iodopropargyl ester] | 0% | 0% | 0% | 100% | 100% | 100% | 100% | 95% | 0% | 50 µg/mL | 50 µg/mL | 50 µg/mL | 50 µg/mL | 6 µg/mL | < 0.8 µg/mL | 25 µg/mL (≈ 60.9 µM) | > 50 µg/mL | 6.2 µg/mL (≈ 15.1 µM) | 
3 | C[C@H](NC(=O)OC(C)(C)C)C(=O)N[C@@H](C)C(=O)OCC#CI [Compound 13, N-t-butoxycarbonyl-L-alanyl-L-alanine iodopropargyl ester] | 50% | 100% | 100% | 100% | 100% | 100% | 100% | 100% | 0% | 50 µg/mL | 50 µg/mL | 100 µg/mL | 50 µg/mL | < 0.8 µg/mL | < 0.8 µg/mL | 25 µg/mL (≈ 58.9 µM) | 50 µg/mL (≈ 118 µM) | 6.2 µg/mL (≈ 14.6 µM) | 

Source: patent EP0414533A1, “Use of iodopropargyl esters of alpha-amino acid derivatives as antimicrobial agents” (ROHM AND HAAS COMPANY, priority 1989, dated 1991)
